# Results from PMC12385234, “In Vitro Inhibitory Effects and Molecular Mechanism of Four Theaflavins on Isozymes of CYP450 and UGTs” (Foods, 2025).
# Read-outs that look alike come from different tables or passages of the source.
# Assays:
# CYP2C9 = CYP2C9 (Homo sapiens, UniProt P11712); assay: Inhibition of CYP2C9 (diclofenac) in pooled human liver microsomes
# Experimental: (§1) The virological tests for AIDS, hepatitis B, and hepatitis C of the donors were negative. The final reaction volume was 150 µL, and the reaction was carried out in a 96-well deep-well cell plate made of polypropylene. The reaction was conducted at a temperature of 37 °C. […]
# (§2) The AB SCIEX 4000/5000 HPLC-MS/MS system, integrated with the HTS PAL autosampler (CTC Analytics AG, Basel, Switzerland) and Shimadzu LC 20 series HPLC (Shimadzu Corporation, Kyoto, Japan), was used for analysis. […] Quantification was achieved by calculating the area under the curve (AUC) for each MRM transition. […]
# (§3) In accordance with the DDI guidelines from the NMPA and the US FDA, the inhibition of CYP1A2, 2B6, 2C8, 2C9, 2C19, 2D6, and 3A4 activity by the test article was assessed. The inhibitory effect was determined by measuring the reduction in metabolite formation of respective probe substrates, expressed as relative activity compared to the negative control (NC), using the following formula: Relative activity (% of NC) = (formation of metabolites in test or PC/formation in NC) × 100. […] Data processing: When the calculated value is less than 100, three significant digits are retained. When the calculated value is greater than or equal to 100, only the integer part is retained.
# CYP2D6 = CYP2D6 (Homo sapiens, UniProt P10635); assay: Inhibition of CYP2D6 (dextromethorphan) in pooled human liver microsomes
# Experimental: (§4) The final reaction volume was 150 µL, and the reaction was carried out in a 96-well deep-well cell plate made of polypropylene. The reaction was conducted at a temperature of 37 °C. To ensure that the reaction time was within the linear range of the metabolic rate and to avoid data distortion caused by substrate depletion or product feedback inhibition, the reaction time for each substrate varied as follows: the incubation time for detecting CYP3A4 enzyme activity was 5 min; the incubation time for detecting CYP2B6, CYP2C8, CYP2C9, and CYP2D6 enzyme activities was 10 min each; the incubation time for detecting CYP1A2 and CYP2C19 enzyme activities was 30 min each.
# (§5) The AB SCIEX 4000/5000 HPLC-MS/MS system, integrated with the HTS PAL autosampler (CTC Analytics AG, Basel, Switzerland) and Shimadzu LC 20 series HPLC (Shimadzu Corporation, Kyoto, Japan), was used for analysis. […]
# (§6) In accordance with the DDI guidelines from the NMPA and the US FDA, the inhibition of CYP1A2, 2B6, 2C8, 2C9, 2C19, 2D6, and 3A4 activity by the test article was assessed. The inhibitory effect was determined by measuring the reduction in metabolite formation of respective probe substrates, expressed as relative activity compared to the negative control (NC), using the following formula: Relative activity (% of NC) = (formation of metabolites in test or PC/formation in NC) × 100. […]
# CYP3A4 = CYP3A4 (Homo sapiens, UniProt P08684); assay: Inhibition of CYP3A4 (testosterone, midazolam) in pooled human liver microsomes
# Chain of CYP3A4 (P08684 whole entry): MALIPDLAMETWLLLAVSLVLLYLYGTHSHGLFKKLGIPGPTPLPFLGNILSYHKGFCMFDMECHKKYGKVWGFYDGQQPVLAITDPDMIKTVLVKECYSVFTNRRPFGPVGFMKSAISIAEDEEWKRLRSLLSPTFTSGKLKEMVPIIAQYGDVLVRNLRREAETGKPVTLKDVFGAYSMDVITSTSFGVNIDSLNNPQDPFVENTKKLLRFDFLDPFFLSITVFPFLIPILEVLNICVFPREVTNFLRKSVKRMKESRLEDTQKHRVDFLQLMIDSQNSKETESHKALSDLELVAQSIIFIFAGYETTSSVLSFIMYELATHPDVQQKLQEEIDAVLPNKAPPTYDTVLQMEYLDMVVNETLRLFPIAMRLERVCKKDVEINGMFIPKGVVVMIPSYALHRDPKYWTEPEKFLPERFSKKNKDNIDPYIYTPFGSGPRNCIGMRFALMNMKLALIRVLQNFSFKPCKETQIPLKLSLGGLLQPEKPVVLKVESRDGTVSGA
# Experimental: as §1, §2, §3
# CYP2C8 = biological target: T1, CYP2C8 (Homo sapiens, UniProt P10632); assay: Inhibition of CYP2C8-mediated amodiaquine metabolism in pooled human liver microsomes
# T1 sequence (P10632 1-490): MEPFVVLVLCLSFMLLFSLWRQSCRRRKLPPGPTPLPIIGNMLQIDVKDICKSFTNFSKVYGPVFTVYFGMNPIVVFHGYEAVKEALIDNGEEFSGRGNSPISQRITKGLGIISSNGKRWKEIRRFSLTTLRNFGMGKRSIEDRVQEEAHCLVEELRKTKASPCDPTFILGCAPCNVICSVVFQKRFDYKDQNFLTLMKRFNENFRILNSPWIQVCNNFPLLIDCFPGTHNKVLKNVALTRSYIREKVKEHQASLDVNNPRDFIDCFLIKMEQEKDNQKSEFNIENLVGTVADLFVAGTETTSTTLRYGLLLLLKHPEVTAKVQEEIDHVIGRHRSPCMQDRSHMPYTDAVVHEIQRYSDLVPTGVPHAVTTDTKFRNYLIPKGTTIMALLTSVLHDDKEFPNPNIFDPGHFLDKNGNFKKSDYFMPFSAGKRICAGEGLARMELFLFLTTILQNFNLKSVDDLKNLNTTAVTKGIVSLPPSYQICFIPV
# Experimental: as §1, §2, §3
# CYP2B6 = biological target: T2, CYP2B6 (Homo sapiens, UniProt P20813); assay: Inhibition of CYP2B6 (bupropion) in pooled human liver microsomes
# T2 sequence (P20813 1-491): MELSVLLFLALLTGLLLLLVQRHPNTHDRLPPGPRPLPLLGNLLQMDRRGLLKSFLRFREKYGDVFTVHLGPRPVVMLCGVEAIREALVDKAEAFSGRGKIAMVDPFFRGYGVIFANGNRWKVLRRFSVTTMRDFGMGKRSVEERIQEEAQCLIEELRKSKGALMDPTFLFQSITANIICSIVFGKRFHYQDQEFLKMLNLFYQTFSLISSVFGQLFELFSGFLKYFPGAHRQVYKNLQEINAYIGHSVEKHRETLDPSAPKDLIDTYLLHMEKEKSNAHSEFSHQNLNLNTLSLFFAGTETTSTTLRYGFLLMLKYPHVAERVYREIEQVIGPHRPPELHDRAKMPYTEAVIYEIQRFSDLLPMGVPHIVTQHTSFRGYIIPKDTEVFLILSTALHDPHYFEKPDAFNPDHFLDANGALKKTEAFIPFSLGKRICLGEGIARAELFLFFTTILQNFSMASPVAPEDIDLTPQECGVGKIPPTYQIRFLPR
# Experimental: as §1, §2, §3
# UGT1A1 [1] = biological target: T3, UGT1A1 (Homo sapiens, UniProt P22309); assay: Inhibition of UGT1A1-catalyzed beta-estradiol glucuronidation, human recombinant UGT
# T3 sequence (P22309 26-533): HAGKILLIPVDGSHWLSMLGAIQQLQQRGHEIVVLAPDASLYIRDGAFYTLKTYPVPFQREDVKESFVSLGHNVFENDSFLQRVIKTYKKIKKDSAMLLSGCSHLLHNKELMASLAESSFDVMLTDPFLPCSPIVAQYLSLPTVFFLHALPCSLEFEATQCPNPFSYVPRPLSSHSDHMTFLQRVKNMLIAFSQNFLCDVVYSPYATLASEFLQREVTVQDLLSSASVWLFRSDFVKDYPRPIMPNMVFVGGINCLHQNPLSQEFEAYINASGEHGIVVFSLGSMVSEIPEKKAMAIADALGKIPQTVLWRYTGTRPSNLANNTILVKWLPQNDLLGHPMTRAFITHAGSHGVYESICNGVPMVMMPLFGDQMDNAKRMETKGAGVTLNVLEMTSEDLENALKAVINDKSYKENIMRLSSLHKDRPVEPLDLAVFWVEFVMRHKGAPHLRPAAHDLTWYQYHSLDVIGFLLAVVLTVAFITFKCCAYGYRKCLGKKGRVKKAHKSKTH
# Experimental: (§7) These enzymes were then incubated with each compound (Table 1). Subsequently, the corresponding substrates for each UGT isoenzyme were added. The inhibitory effects of the respective products were evaluated by measuring their generation. […] Each incubation mixture was prepared in triplicate, containing 0.25 mg/mL recombinant enzyme, 5 mM UDPGA, and 10 mM propylthiouracil, among other conditions.
# UGT1A3 = biological target: T4, UGT1A3 (Homo sapiens, UniProt P35503); assay: Inhibition of UGT1A3-mediated beta-estradiol glucuronidation, human recombinant UGT
# T4 sequence (P35503 29-534): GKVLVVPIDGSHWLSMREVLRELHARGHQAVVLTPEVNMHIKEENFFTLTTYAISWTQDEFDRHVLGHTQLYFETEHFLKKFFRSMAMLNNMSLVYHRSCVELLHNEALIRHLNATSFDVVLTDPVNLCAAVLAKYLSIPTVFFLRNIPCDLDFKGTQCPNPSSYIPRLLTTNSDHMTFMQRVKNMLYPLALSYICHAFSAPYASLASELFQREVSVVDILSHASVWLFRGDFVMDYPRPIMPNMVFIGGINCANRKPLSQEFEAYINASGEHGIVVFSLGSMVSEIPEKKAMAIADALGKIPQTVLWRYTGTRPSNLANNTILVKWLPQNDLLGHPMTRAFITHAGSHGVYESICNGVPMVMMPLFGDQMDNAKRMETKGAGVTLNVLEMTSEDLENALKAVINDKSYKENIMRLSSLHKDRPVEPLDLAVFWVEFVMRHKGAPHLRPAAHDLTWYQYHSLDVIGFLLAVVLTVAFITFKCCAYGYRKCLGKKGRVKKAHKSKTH
# Experimental: as §7
# UGT1A4 = biological target: T5, UGT1A4 (Homo sapiens, UniProt P22310); assay: Inhibition of UGT1A4-catalyzed trifluoperazine glucuronidation, human recombinant UGT
# T5 sequence (P22310 29-534): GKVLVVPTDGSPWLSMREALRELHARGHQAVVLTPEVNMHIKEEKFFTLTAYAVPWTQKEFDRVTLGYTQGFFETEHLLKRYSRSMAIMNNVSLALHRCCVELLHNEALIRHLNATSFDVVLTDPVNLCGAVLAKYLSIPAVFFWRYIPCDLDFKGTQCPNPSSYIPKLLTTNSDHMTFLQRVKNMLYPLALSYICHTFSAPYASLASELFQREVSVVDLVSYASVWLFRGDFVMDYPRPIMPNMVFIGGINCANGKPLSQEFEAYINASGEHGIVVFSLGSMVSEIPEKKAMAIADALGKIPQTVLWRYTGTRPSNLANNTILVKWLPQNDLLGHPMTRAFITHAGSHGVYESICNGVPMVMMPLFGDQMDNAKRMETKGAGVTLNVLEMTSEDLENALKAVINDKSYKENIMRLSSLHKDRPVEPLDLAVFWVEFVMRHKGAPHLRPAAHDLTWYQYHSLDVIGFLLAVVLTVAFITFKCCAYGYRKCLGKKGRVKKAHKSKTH
# Experimental: as §7
# UGT2B15 = biological target: T6, UGT2B15 (Homo sapiens, UniProt P54855); assay: Inhibition of UGT2B15-catalyzed 4-trifluoromethyl-7-hydroxycoumarin glucuronidation, human recombinant UGT
# T6 sequence (P54855 24-530): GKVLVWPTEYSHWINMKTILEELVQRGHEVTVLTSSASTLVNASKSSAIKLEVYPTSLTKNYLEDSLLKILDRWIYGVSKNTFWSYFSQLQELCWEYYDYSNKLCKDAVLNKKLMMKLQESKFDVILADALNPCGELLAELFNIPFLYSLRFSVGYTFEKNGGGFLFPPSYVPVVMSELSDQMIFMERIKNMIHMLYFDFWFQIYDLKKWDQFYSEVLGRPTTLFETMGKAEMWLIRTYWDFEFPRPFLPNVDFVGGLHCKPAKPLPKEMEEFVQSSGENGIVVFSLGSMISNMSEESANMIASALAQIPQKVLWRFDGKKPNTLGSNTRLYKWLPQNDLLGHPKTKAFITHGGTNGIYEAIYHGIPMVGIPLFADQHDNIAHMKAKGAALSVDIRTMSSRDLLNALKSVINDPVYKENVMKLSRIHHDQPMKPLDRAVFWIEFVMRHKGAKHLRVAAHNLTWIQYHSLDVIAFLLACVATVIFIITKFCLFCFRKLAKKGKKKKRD
# Experimental: as §7
# CYP2C19 = CYP2C19 (Homo sapiens, UniProt P33261); assay: Inhibition of CYP2C19 (S-mephenytoin) in pooled human liver microsomes
# Chain of CYP2C19 (P33261 whole entry): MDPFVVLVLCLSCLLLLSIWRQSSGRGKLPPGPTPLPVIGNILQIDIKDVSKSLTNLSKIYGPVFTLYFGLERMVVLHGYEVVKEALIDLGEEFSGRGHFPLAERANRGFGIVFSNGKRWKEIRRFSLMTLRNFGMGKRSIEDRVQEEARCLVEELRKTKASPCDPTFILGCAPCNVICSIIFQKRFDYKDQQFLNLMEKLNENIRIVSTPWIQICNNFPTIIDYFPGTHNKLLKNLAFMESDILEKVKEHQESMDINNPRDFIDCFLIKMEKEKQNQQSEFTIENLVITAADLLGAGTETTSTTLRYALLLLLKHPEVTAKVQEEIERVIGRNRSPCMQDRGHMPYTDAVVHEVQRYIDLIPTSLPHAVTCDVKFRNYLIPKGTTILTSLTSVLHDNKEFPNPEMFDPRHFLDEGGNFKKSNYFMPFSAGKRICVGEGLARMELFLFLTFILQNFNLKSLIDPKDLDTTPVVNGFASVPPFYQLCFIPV
# Experimental: as §4, §5, §6
# CYP1A2 = biological target: T7, CYP1A2 (Homo sapiens, UniProt P05177); assay: Inhibition of CYP1A2-catalyzed phenacetin metabolism in pooled human liver microsomes
# T7 sequence (P05177 1-516): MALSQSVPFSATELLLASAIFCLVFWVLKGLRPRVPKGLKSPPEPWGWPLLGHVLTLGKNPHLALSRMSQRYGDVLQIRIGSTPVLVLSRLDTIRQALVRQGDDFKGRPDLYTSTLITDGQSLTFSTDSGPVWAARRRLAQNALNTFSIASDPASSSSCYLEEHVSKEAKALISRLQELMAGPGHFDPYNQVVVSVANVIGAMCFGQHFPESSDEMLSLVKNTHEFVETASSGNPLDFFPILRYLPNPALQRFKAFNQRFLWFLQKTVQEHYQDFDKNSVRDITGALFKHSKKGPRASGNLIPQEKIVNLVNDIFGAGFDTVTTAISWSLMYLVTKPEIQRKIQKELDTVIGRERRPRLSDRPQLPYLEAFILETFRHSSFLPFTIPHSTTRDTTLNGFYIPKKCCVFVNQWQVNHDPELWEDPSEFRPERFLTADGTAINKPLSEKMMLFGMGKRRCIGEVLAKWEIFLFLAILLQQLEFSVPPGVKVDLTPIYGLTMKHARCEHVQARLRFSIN
# Experimental: as §1, §2, §3
# UGT1A1 [2] = conditions: cited from earlier work
# UGT1A9 = conditions: cited from earlier work
# Chain of CYP2D6 (P10635 whole entry): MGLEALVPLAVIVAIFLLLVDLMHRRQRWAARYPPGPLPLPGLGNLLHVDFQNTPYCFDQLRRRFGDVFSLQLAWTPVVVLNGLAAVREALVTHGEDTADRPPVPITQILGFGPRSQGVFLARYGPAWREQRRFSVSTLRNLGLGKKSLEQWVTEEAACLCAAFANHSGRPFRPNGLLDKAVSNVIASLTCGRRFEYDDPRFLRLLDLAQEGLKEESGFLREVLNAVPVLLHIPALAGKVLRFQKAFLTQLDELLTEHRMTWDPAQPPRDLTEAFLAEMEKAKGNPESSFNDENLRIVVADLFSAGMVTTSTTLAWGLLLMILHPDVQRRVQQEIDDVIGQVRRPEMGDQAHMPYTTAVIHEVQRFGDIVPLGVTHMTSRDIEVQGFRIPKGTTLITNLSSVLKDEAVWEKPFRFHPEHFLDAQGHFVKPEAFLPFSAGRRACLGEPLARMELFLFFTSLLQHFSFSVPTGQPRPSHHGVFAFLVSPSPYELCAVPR
# Chain of CYP2C9 (P11712 whole entry): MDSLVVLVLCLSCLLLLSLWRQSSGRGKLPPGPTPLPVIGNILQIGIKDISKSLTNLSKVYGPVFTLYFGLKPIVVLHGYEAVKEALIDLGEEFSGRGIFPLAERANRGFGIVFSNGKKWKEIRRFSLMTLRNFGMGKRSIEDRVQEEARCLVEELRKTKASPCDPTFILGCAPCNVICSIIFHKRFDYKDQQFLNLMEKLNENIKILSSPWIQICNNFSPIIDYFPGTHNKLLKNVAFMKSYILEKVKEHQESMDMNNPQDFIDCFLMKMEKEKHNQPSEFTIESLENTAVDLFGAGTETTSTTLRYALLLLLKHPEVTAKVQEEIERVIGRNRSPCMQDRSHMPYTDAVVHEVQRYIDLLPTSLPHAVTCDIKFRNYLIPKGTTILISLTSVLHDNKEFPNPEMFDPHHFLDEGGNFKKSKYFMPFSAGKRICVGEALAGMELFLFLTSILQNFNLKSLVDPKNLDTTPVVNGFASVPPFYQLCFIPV
Molecule,IC50 (CYP2C9) [µM],IC50 (CYP2D6) [µM],IC50 (CYP3A4) [µM],"IC50 (CYP3A4; read-out: IC50, CYP3A4-M, pooled HLMs, probe midazolam) [µM]",IC50 (CYP2C8) [µM],IC50 (CYP2B6) [µM],IC50 (UGT1A1 [1]) [µM],IC50 (UGT1A3) [µM],IC50 (UGT1A4) [µM],IC50 (UGT2B15) [µM],IC50 (CYP2C19) [µM],IC50 (CYP1A2) [µM],Inhibition of UGT1A1 (in words) (UGT1A1 [2]),Inhibition of UGT1A9 (in words) (UGT1A9)
"O=c1c(O)cc([C@H]2Oc3cc(O)cc(O)c3C[C@H]2O)cc2c([C@H]3Oc4cc(O)cc(O)c4C[C@H]3O)cc(O)c(O)c12 [Theaflavin, theaflavin]",> 20,> 20,> 20,> 20,> 20,> 20,3.89,> 20,> 20,> 20,> 20,> 20,,
(-)-epigallocatechin-3-gallate [EGCG],,,,,,,,,,,,,moderately inhibit,moderately inhibit
O=c1c(O)c(-c2ccc(O)c(O)c2)oc2cc(O)cc(O)c12 [quercetin],,,,,,,,,,,,,strong inhibition,
